How the values were obtained:
[1] = system: dihydrodipicolinate synthase (DHPS); settings: cited from earlier work
E. coli DHPS = E. coli DHPS (Escherichia coli, UniProt P0A6L2); settings: read-out: I50 of E. coli DHPS for lysine; cited from earlier work
DHPS = DHPS enzyme activity in transgenic tubers (O-aminobenzaldehyde method); type: biochemical; settings: transformed (mutant DHPS) versus control potato tubers
Method: Microtubers or mature tubers were homogenised with mortar and pestle in an equal volume of cold 100 mM Tris-HCl pH 7.5 containing 2 mM EDTA, 1.4% sodium ascorbate, 1 mM phenylmethylsulphonilfluoride and 0.5 Tg/ml leupeptin. Following 5 min. centrifugation (16,000 g at 4° C.) the supernatant is collected. DHPS activity was measured using the O-aminobenzaldehyde (O-ABA) method of Yugari and Gilvarg (Yugari, Y. and Gilvarg, C. (1965) J. Biol. Chem. 240: 4710-4716).

Sequence of E. coli DHPS (P0A6L2 whole entry): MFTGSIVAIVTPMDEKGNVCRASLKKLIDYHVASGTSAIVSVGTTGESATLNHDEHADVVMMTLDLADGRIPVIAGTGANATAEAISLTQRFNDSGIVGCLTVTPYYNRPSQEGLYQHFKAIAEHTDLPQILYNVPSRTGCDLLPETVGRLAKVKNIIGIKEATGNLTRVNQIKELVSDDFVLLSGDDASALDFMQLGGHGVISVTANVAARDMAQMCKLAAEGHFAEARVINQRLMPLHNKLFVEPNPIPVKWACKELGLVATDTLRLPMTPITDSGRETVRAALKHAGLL

Compound	sensitivity of plant DHPS to lysine inhibition relative to E. coli DHPS ([1]; more sensitive than E. coli DHPS)	sensitivity of plant DHPS to lysine inhibition relative to plant lysine-sensitive AKs ([1]; more sensitive than plant lysine-sensitive AKs)	IC50 (E. coli DHPS) [mM]	AEC sensitivity of DHPS activity (DHPS)
NCCCC[C@H](N)C(=O)O [lysine]	about 100 fold	about 10 fold	~1	–
NCCSC[C@H](N)C(=O)O [AEC, S-(2-aminoethyl)-L-cysteine]	–	–	–	reduced

Source: patent publication US20030061633A1, “Modified dhps genes” (priority 1999, published 2003)
